Patent US20060134022A1, “Salivary stimulatory compositions and method of use thereof” (priority 2004, published 2006)

Experiment: Self warming mouthwash temperature increase vs. sulfite concentration on mixing sulfite phase with peroxide phase
Format: physicochemical
Conditions: approximate (plus/minus 2 degrees)
Source text: The saliva stimulation effectiveness of the solution depends on raising its temperature before use. This may be done by conventional external heating means. Alternatively the sulfate, bisulfate or pyrosulfate may be produced in situ by utilizing a solution of the corresponding sulfite, bisulfite or metabisulfite and adding a solution of an orally acceptable peroxide thereto. The resulting reaction produces excess heat, thus raising the solution temperature. While the amount of peroxide added is not critical, it is desirable to use at least an amount substantially equivalent to the stoichiometric amount need to oxidize the salts in their reduced forms to the higher oxidation state.
Note: Temperatures are in Fahrenheit Degrees and are approximate (plus/minus 2 degrees).
Sulfite Concentrations listed below are final concentration in the mouthwash. Since the final mouthwash is formed from equal amounts of 2 separate phases, the sulfite concentration in the sulfite containing phase is double that in the final mouthwash.
Combine equal amounts of Phase A and Phase B, Just prior to use, to form the final mouth rinse

[1] = 1% final concentration in the mouthwash
[2] = 2% final concentration in the mouthwash
[3] = 4% final concentration in the mouthwash

Structure (SMILES): O=S([O-])S(=O)(=O)[O-].[Na+].[Na+] [Sodium Metabisulfite]
- Final Temp. [1]: 97.3 Fahrenheit Degrees
- Temp. Increase [1]: 12.1 Fahrenheit Degrees
- Final Temp. [2]: 113.2 Fahrenheit Degrees
- Temp. Increase [2]: 27.2 Fahrenheit Degrees
- Final Temp. [3]: 142.0 Fahrenheit Degrees
- Temp. Increase [3]: 55.9 Fahrenheit Degrees

Structure (SMILES): O=S([O-])[O-].[Na+].[Na+] [Sodium Sulfite]
- Final Temp. [1]: 98.1 Fahrenheit Degrees
- Temp. Increase [1]: 10.2 Fahrenheit Degrees
- Final Temp. [2]: 110.7 Fahrenheit Degrees
- Temp. Increase [2]: 21.4 Fahrenheit Degrees
- Final Temp. [3]: 133.5 Fahrenheit Degrees
- Temp. Increase [3]: 43.0 Fahrenheit Degrees
